Assay results reported in the supplement of paper PMC11208160.

Assay: recombinant UMI read abundance after kanamycin selection (control-corrected) (log10(CPM+1)); higher = more efficient recombination; extreme values may be limits of the assay; sequences stand for … in AGTGCAGAGAAAATCGGCCAGTTTTCTCTGCCTGCAGTCCGCATGCCGTGGGACCCCTTGGGTTCTAACCTGTTGCCTAGATTTATGCAGCGGACTGCCTTTCTCCCAAAGTGATAAACCGG…AGGTTGGTTTCACT; site = the 11-nt donor
Method in brief: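 Values, expressed as log10(CPM+1), derive from recombinant UMI counts converted to CPM, averaged across replicates and scaled by control-derived factors. Plating was with IPTG (0.07 mM) plus kanamycin or unselected, two replicates each. The screen pooled donor and donor-binding-loop pairs for the IS621 bridge recombinase in Escherichia coli.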
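Further: IS621 bridge recombinase in Escherichia coli cells against a fixed T5 target plasmid.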

Sequence	recombinant UMI read abundance (log10)
GCACAGCCATGGACCGGTTTTCCCGGTAATCCGTATTTGTT (site GCACAGCCTAA)	1.47
GCACCAACATGGACCGGTTTTCCCGGTAATCCGTATTTGCC (site GCACCAACTGG)	0.762
GCACCGACATGGACCGGTTTTCCCGGTAATCCGTATTTGAA (site GCACCGACTTT)	0.965
GCACGAACATGGACCGGTTTTCCCGGTAATCCGTATTTGTC (site ACACGAACTGA)	1.48
GCACGAACATGGACCGGTTTTCCCGGTAATCCGTATTTGTC (site CCACGAACTGA)	2.19
GCACGAACATGGACCGGTTTTCCCGGTAATCCGTATTTGTC (site GCACGAACTGA)	2.56
GCACGAACATGGACCGGTTTTCCCGGTAATCCGTATTTGTC (site TCACGAACTGA)	0.552
GCACGTGCATGGACCGGTTTTCCCGGTAATCCGTATTTGGC (site GCACGTGCTGC)	2.23
GCACTCTCATGGACCGGTTTTCCCGGTAATCCGTATTTGGG (site GCACTCTCTCC)	0.647
GCAGAGTCATGGACCGGTTTTCCCGGTAATCCGTATTTGTA (site GCAGAGTCTTA)	3.17
GCAGATCCATGGACCGGTTTTCCCGGTAATCCGTATTTGTC (site GCAGATCCTGA)	0
GCAGCGTCATGGACCGGTTTTCCCGGTAATCCGTATTTGGA (site GCAGCGTCTTC)	2.37
GCAGGCCCATGGACCGGTTTTCCCGGTAATCCGTATTTGCC (site GCAGGCCCTGG)	0.86
GCAGTGACATGGACCGGTTTTCCCGGTAATCCGTATTTGCG (site GCAGTGACTCG)	2.18
GCAGTTTCATGGACCGGTTTTCCCGGTAATCCGTATTTGCA (site GCAGTTTCTTG)	2.59
GCATACTCATGGACCGGTTTTCCCGGTAATCCGTATTTGCA (site ACATACTCTTG)	2.41

Sequence	recombinant UMI read abundance (log10)
GCATACTCATGGACCGGTTTTCCCGGTAATCCGTATTTGCA (site CCATACTCTTG)	2.9
GCATACTCATGGACCGGTTTTCCCGGTAATCCGTATTTGCA (site GCATACTCTTG)	2.96
GCATACTCATGGACCGGTTTTCCCGGTAATCCGTATTTGCA (site TCATACTCTTG)	2.61
GCATAGTCATGGACCGGTTTTCCCGGTAATCCGTATTTGTT (site GCATAGTCTAA)	3.29
GCATCGGCATGGACCGGTTTTCCCGGTAATCCGTATTTGAC (site GCATCGGCTGT)	2.09
GCATGCCCATGGACCGGTTTTCCCGGTAATCCGTATTTGAT (site GCATGCCCTAT)	0.197
GCATGCCCATGGACCGGTTTTCCCGGTAATCCGTATTTGAT (site GCCTGCCCTAT)	0.226
GCATGCCCATGGACCGGTTTTCCCGGTAATCCGTATTTGAT (site GCGTGCCCTAT)	0.0164
GCATGCCCATGGACCGGTTTTCCCGGTAATCCGTATTTGAT (site GCTTGCCCTAT)	0.0139
GCATGGCCATGGACCGGTTTTCCCGGTAATCCGTATTTGCA (site GAATGGCCTTG)	0
GCATGGCCATGGACCGGTTTTCCCGGTAATCCGTATTTGCA (site GCATGGCCTTG)	0
GCATGGCCATGGACCGGTTTTCCCGGTAATCCGTATTTGCA (site GGATGGCCTTG)	0.0185
GCATGGCCATGGACCGGTTTTCCCGGTAATCCGTATTTGCA (site GTATGGCCTTG)	0.0194
GCATTACCATGGACCGGTTTTCCCGGTAATCCGTATTTGTC (site GCATTACCTGA)	0
GCCAACGCATGGACCGGTTTTCCCGGTAATCCGTATTTGAA (site GCCAACGCTTT)	1.63
GCCAAGGCATGGACCGGTTTTCCCGGTAATCCGTATTTGAG (site GCCAAGGCTCT)	1.49
